Laboratory results taken from patent US8455223B2, “Dehydrogenases, the derivatives thereof, and method for the production of optically active alkanols” (BASF SE, priority 2005, dated 2013).

Experiments:
[1] = system: ADH-3 enzyme SEQ ID NO: 2; assay: Relative activity of dehydrogenase for various substrates, with cofactor regeneration in the 2-phase system (Example 3); assay type: biochemical, Candida
[2] = system: ADH-3 enzyme SEQ ID NO: 2; assay: Relative activity of dehydrogenase for various substrates, with cofactor regeneration, monophasic liquid system (Example 2); assay type: biochemical, Candida; conditions: cofactor regeneration with glucose and glucose dehydrogenase
Protocol: (§1) Relative activity of the dehydrogenases of the invention for various substrates (optical purity in % ee is indicated in brackets) with cofactor regeneration.
(§2) The reaction was carried out in a manner similar to example 1. Cofactor regeneration was carried out by way of addition of glucose and glucose dehydrogenase in a monophasic liquid system.

[3] = system: ADH-4 enzyme SEQ ID NO: 4; assay: as above; assay type: biochemical, Candida; conditions: cofactor regeneration with glucose and glucose dehydrogenase
Protocol: as §1, §2

[4] = system: ADH-4 enzyme SEQ ID NO: 4; assay: Relative activity of dehydrogenase for various substrates, with cofactor regeneration in the 2-phase system (Example 3); assay type: biochemical, Candida
[5] = system: Comparative enzyme EP 1152054 SEQ ID NO: 1; assay: as above; assay type: biochemical
[6] = system: Comparative enzyme EP 1152054 SEQ ID NO: 1; assay: Relative activity of dehydrogenase for various substrates, with cofactor regeneration, monophasic liquid system (Example 2); assay type: biochemical; conditions: cofactor regeneration with glucose and glucose dehydrogenase
Protocol: as §1, §2

[7] = system: ADH-3 enzyme SEQ ID NO: 2; assay: Relative activity of dehydrogenase for various substrates, without cofactor regeneration (Example 1); assay type: biochemical, Candida; conditions: 37° C., approx. 20 hours, chiral gas chromatography
Protocol: (§3) Relative activity of the dehydrogenases of the invention for various substrates (optical purity in % ee is indicated in brackets)
(§4) The reaction was carried out without cofactor regeneration.
(§5) 180 μl of 50 mM Kpi buffer, including 1 mM MgCl2
(§6) 200 μl of NADPH, 10 mM stock solution
(§7) 100 μl of substrate, 1 M stock solution 500 μl of hexane
(§8) The reaction mixture was incubated at 37° C. and 1000 rpm for approx. 20 hours. It was then centrifuged at 20° C., the clear supernatant was removed and analyzed by chiral gas chromatography.

[8] = system: ADH-4 enzyme SEQ ID NO: 4; assay: as above; assay type: biochemical, Candida; conditions: 37° C., approx. 20 hours, chiral gas chromatography
Protocol: as §3, §4, §5, §6, §7, §8

[9] = system: Comparative enzyme EP 1152054 SEQ ID NO: 1; assay: as above; assay type: biochemical; conditions: 37° C., approx. 20 hours
Protocol: as §3, §4, §5, §6, §7, §8

[10] = ADH-3 enzyme, cofactor regeneration, two-phase liquid system (MTBE: aqueous)
[11] = ADH-4 enzyme, cofactor regeneration, two-phase liquid system (MTBE: aqueous)
[12] = cofactor regeneration, two-phase liquid system (MTBE: aqueous)

Row | Compound | Relative activity [1] | Relative activity [2] | Relative activity [3] | Relative activity [4] | Relative activity ([5]; […]) | Relative activity [6] | Relative activity [1, 10] | Relative activity [7] | Relative activity [8] | Relative activity [4, 11] | Relative activity [5, 12] | Relative activity [9]
1 | O=C(CCl)c1ccc(F)cc1 [FCA, 4′-fluoro-2-chloro-acetophenone] | 99.5 | 99.5 | 53.6 | 15.3 | 12.6 | 50.4 |  |  |  |  |  | 
2 | 4-chloro-methoxyacetophenone [CMAP] |  |  |  |  |  |  | 100 | 34.46 | 24.89 | 77.1 | 46.8 | 29.44
3 | O=C(CCl)c1cccc(Cl)c1 [m-DICAP, 2,3′-dichloro-acetophenone] | 100 | 100 | 55.8 | 24.6 (6% S) | 14 (>99% R) | 47.1 |  | 100 | 56.38 |  |  | 2.3
4 | CC(=O)c1ccccc1 [Acetophenone] |  | 8.9 |  |  |  | 0.7 | 71.2 | 16.08 | 3.14 | 0.4 | 0.2 | 0.84
5 | O=C(CCl)c1ccc(Cl)cc1 [p-DICAP, 2,4′-dichloro-acetophenone] | 30.4 (>99% R) | 18.9 | 62.1 | 27.6 (42% S) | 24.2 (>99% R) | 62.5 |  |  |  |  |  | 
